# Data: publication PMC8766756, “Insights on Cancer Cell Inhibition, Subcellular Activities, and Kinase Profile of Phenylacetamides Pending 1H-Imidazol-5-One Variants” (Frontiers in Pharmacology, 2022)
# Target: T1, Axl (P30530) (Homo sapiens, UniProt P30530)
# T1 construct: purchased PamGene (PamChip PTK array, Upstream Kinase Analysis)
# T1 sequence (P30530 26-894): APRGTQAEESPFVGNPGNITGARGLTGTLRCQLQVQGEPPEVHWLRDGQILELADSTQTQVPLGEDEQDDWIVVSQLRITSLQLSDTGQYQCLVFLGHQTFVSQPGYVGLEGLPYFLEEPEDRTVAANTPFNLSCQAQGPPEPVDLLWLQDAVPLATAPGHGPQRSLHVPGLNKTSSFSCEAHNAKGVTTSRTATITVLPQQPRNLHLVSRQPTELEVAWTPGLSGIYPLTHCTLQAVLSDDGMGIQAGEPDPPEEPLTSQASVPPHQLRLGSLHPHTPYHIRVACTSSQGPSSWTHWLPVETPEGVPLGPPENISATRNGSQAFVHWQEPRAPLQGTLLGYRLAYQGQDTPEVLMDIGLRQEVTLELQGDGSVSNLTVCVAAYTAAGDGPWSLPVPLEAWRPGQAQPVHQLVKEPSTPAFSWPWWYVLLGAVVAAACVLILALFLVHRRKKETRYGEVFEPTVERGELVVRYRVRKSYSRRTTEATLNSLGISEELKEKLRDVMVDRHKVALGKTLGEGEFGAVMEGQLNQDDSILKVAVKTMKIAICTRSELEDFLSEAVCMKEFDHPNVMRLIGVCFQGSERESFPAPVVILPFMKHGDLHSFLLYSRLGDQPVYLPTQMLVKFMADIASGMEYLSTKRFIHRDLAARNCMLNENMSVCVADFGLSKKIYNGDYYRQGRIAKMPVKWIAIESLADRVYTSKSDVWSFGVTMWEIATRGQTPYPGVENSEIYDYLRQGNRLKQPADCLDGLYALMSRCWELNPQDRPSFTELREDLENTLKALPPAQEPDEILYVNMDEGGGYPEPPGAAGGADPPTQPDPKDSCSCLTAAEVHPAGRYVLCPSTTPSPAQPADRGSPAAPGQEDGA
# Assay: PamChip tyrosine kinase microarray
# Format: biochemical
# Conditions: 0.1 µM, HL60 lysate
# Method in brief: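 HL60 (AML) cell lysate was spiked with compound at 0.001, 0.01, 0.1, 1, 10 and 50 µM, or 2% v/v DMSO as control, then profiled in technical replicates on a tyrosine kinase peptide array of 196 phosphosites. Kinase activity was inferred from peptide-set changes using an upstream kinase tool.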
smiles,measurement,value
"COc1ccc(/C=C2\N=C(C)N(c3ccc(CC(=O)NCc4ccccc4)cc3)C2=O)cc1 [Compound 4c, (Z)-N-Benzyl-2-(4-(4-(4-methoxybenzylidene)-2-methyl-5-oxo-4,5-dihydro-1H-imidazol-1-yl)phenyl)acetamide]",Mean Final score (Kinase score),2.569
same,Mean Kinase Statistic,-1.219
same,Mean Significance Score,2.048
same,Mean Specificity Score,0.5684
